Reference: patent US8563054B2, “Anti-inflammatory agent” (Maruzen Pharmaceuticals Co., Ltd., priority 2005, dated 2013)
Values after ≈ are worked out from the molar mass of the structure shown.

Assays:
[1] = biological target: T1, hyaluronidase (Type IV-S, from bovine testis) (Bos taurus, UniProt Q2YDK3); experiment: Hyaluronidase activity inhibition assay; assay type: biochemical; conditions: pH 3.5, 37° C., by interpolation
T1 construct: hyaluronidase solution (Type IV-S (from bovine testis))
T1 sequence (Q2YDK3 1-553): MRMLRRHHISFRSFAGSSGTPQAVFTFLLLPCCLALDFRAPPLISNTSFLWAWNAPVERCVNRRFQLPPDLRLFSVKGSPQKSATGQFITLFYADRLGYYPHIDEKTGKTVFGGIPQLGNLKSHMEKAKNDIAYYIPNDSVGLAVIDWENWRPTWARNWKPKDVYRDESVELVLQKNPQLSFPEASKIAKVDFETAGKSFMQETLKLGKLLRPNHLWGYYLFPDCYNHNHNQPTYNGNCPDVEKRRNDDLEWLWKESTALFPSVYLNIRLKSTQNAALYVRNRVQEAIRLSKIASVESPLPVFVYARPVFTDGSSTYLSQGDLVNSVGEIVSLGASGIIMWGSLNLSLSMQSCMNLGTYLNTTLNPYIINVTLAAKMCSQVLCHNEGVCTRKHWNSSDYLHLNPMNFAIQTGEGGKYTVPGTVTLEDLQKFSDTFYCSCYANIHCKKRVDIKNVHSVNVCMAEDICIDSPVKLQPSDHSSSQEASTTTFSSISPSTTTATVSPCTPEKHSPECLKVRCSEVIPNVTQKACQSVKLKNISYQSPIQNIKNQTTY
Description: For the extracts and purified materials prepared in Production Examples 1 to 5 (hereinafter, may be referred to as “sample”), inhibitory effect on hyaluronidase activity was tested as follows.
First, 0.1 mL of hyaluronidase solution (Type IV-S (from bovine testis; SIGMA 400 NF units/mL) was added to 0.1 mol/L acetic acid buffer (pH 3.5) in which each sample was dissolved, and allowed to react at 37° C. for 20 minutes.
Next, 0.2 mL of 2.5 mmol/L calcium chloride was added as an activating agent and allowed to react at 37° C. for 20 minutes. To this solution, 0.5 mL of 0.4 mg/mL potassium hyaluronate solution (from rooster comb) was added and allowed to react at 37° C. for 40 minutes. […] After that, absorbance at the wavelength of 585 nm was determined.
Next, similar operations and absorbance determination were performed without addition of enzyme. Further, as a control, using distillated water instead of sample solution, similar operations and absorbance determination were performed.
From the results of the measurements mentioned above, the percentage inhibition of hyaluronidase activity was calculated according to the following formula 1: % Inhibition of hyaluronidase activity=[1−(St−Sb)/(Ct−Cb)]×100 <Formula 1> […]
Next, the sample concentration was reduced in a stepwise manner, and the above-mentioned percentage inhibition of hyaluronidase activity was measured. […]

[2] = system: rabbit washed platelet suspension; experiment: Platelet aggregation inhibitory effect (collagen-induced, washed platelets); assay type: cell-based; conditions: collagen as aggregation inducing agent, by interpolation
Description: For the extracts and purified materials prepared in Production Examples 1 to 5 (hereinafter, may be referred to as “sample”), inhibitory effect on platelet aggregation was tested as follows.
First, rabbit blood, which was collected with the addition of 1/10 amount of 77 mmol/L EDTA (pH 7.4), was centrifuged (180×g, 10 minutes, room temperature) to obtain platelet suspension. Next, the platelet suspension was centrifuged (810×g, 10 minutes, 4° C.), and the supernatant was removed to obtain platelet. This was suspended in platelet washing solution (0.15 mol/L sodium chloride: 0.15 mol/L Tris-HCL buffer (pH 7.4): 77 mmol/L EDTA (pH7.4)=90:8:2), centrifuged in the same way as mentioned above. […]
Next, to 222 μL of the prepared washed platelet suspension, 1 μL of 200 mmol/L calcium chloride solution was added and allowed to react at 37° C. for 1 minute. […] Separately, rate of platelet aggregation, B, was determined in a similar operation to that mentioned above except that the solvent of sample solution was added instead of the sample solution. % Inhibition of platelet aggregation=[(B−A)/B]×100 <Formula 3> […]
Next, the sample concentration was reduced in a stepwise manner, and the above-mentioned percentage inhibition of platelet aggregation was measured. The sample concentration, at which 50% of platelet aggregation is inhibited, was determined by interpolation. […]

[3] = system: rat basophilic leukemia cells (RBL-2H3); experiment: Assay of inhibitory effect on hexosaminidase release (indicator of histamine release); assay type: cell-based; conditions: RBL-2H3, DNP-specific IgE / DNP-BSA stimulation; by interpolation
Description: For the extracts and purified materials prepared in Production Examples 1 to 5 (hereinafter, may be referred to as “sample”), inhibitory effect on hexosaminidase release was tested as follows. Since hexosaminidase is also released simultaneously upon release of to histamine inside a cell, the inhibitory effect on histamine release can be evaluated using hexosaminidase release as an indicator of histamine release.
First, rat basophilic leukemia cells (RBL-2H3) were cultured using a medium (S-MEM medium with 15% FBS; hereinafter the same) placed in 25 mL culture flasks, and then cells were collected by trypsin treatment. […]
Then, release was stopped by leaving the 96 well plate at rest on ice. […] After completion of the reaction, 250 μL of 0.1 mol/L Na2CO3/NaHCO3 was added to each well, and the absorbance at the wavelength of 415 nm was determined.
Next, as a blank test, the absorbance of a mixture of 10 μl it of cell supernatant and 250 μL of 0.1 mol/L Na2CO3/NaHCO3 at the wavelength of 415 nm was determined and was used for correction.
From the results of the measurements mentioned above, the percentage inhibition of hexosaminidase release was determined according to the following formula 2: % Inhibition of hexosaminidase release=[1−(B−C)/A]×100 <Formula 2> […]

Q: Which results are given for `CC1(C)C=Cc2c(ccc3c2OC[C@@H](c2ccc(O)cc2O)C3)O1` [Glabridin of Production Example 4, glabridin]?
A: IC50 ([1]; read-out: Sample concentration for 50% inhibition of hyaluronidase activity (converted)): 56.4 µM; IC50 ([2]; Oryctolagus cuniculus, Platelet, read-out: Sample concentration for 50% inhibition of platelet aggregation): 400 µg/mL (≈ 1230 µM)

Q: For `C=CC(C)(C)c1cc(/C=C/C(=O)c2ccc(O)cc2)c(OC)cc1O` [Licochalcone A of Production Example 5, licochalcone A], which “Sample concentration for 50% inhibition of hyaluronidase activity” value [1] is on record?
A: The value was 17.2 µg/mL.

Q: What about the “Sample concentration for 50% inhibition of platelet aggregation” value [2] of the same compound?
A: The value was 79.7 µg/mL.

Q: And the “Sample concentration for 50% inhibition of hexosaminidase release” value [3]?
A: The value was 23.5 µg/mL.
